Results published in EP4703354A1, “COMPOUND AS CCR6 ANTAGONIST, AND PHARMACEUTICAL COMPOSITION AND USE THEREOF” (Wuhan Createrna Science and Technology Co.,Ltd., priority 2023, dated 2024).

Key:
Type in all cases: in vitro ADME
[1] = in vitro liver microsome metabolic stability, human; settings: Human liver microsomes, 37°C
Procedure: (§1) Preparation of working solutions for test compounds and standards: An appropriate amount of the compound was accurately weighed and dissolved in a corresponding volume of suitable solvent to prepare 1 mM stock solutions of the test compounds and standards. The stock solutions were then diluted with appropriate solvent to obtain 100 µM working solutions of the test compounds, ensuring that the DMSO content in the working solutions remained below 10%.
(§2) The internal standard compound testosterone (or tolbutamide) and its corresponding solvent, internal standard concentration (200 ng/mL), were selected based on the properties of the test compound.
(§3) • Solution A: 0.1 mol/L K2HPO4 (2.28 g K2HPO4·3H2O was dissolved in 100 mL of double-distilled water); • Solution B: 0.1 mol/L KH2PO4 (1.36 g KH2PO4 was dissolved in 100 mL of double-distilled water); • 80.2 mL of Solution A and 19.8 mL of Solution B were mixed thoroughly, and the pH was adjusted to 7.4.
(§4) 37.5 mg of glycine was weighed, dissolved in 100 mL of ultrapure water, and adjusted to pH 8.0 with NaOH.
(§5) 1.25 mg of glucose-6-phosphate dehydrogenase (400 U/mg) was weighed (the specific amount weighed was calculated based on the activity of the purchased glucose-6-phosphate dehydrogenase), dissolved in 1 mL of glycine buffer to a concentration of 500 U/mL, aliquoted into 20 µL per tube, and stored at -20°C for future use.
(§6) 7.83 mg of NADP, 0.06 mL of D-glucose-6-phosphate (260 mg/mL), and 10.17 mg of MgCl2·6H2O were precisely weighed.
(§7) The mixture was dissolved in 1 mL of pure water. The cofactor ratio composition: NADP 10 mM, D-glucose-6-phosphate 60 mM, MgCl2·6H2O 50 mM.
(§8) The reaction system (taking a 500 µL system as an example) was composed of the following solution ratios: 416.5 µL phosphate buffer, 5 µL compound working solution, 25 µL liver microsomes, 3.5 µL glucose-6-phosphate dehydrogenase, and 50 µL cofactor solution. The total incubation volume could be adjusted according to experimental requirements.
(§9) 416.5 µL of phosphate buffer was taken, 25 µL of liver microsomes, 3.5 µL of glucose-6-phosphate dehydrogenase, and 50 µL of cofactor solution were added, vortexed twice to mix, and preincubated in a 37°C water bath for 5 minutes. Then, 5 µL of the test compound working solution was added, vortexed twice to mix, each time for 2-3 seconds, and placed in a 37°C water bath to initiate the reaction, with two parallel samples set. At 0.5 min, 1 min, 2 min, 5 min, 15 min, and 30 min after the reaction, 50 µL of the mixture was taken and added to centrifuge tubes containing 200 µL of 0°C pre-cooled internal standard working solution to terminate the reaction, vortexed for 1 minute to mix, and centrifuged at 13,000 rpm for 10 minutes in a 4°C pre-cooled high-speed centrifuge. The supernatant was collected for analysis. After the compound was added and vortex-mixed, 50 µL of the mixture was rapidly transferred to a centrifuge tube containing 200 µL of a pre-cooled (0°C) internal standard working solution to terminate the reaction, vortex-mixed for 1 minute, and used as the relative zero-point sample (relative to the standard group). The sample was then placed into a 37°C water bath to initiate the reaction, and timing was started.
(§10) The sample analysis of the test compound was performed using the liquid chromatography-tandem mass spectrometry (LCMS/MS) method. The semi-quantitative determination was performed using the ratio of the analyte peak area to the internal standard peak area. The retention times of the analyte and internal standard, chromatogram acquisition, and chromatogram integration were processed using Analyst software.
(§11) The in vitro elimination rate constant k of the test compound and the control compound was determined by converting the ratio of the peak area of the test compound to the internal standard into the remaining rate, and T1/2 was then calculated according to the following formula. T1/2 = (Ln2)/(k) = (0.693)/(k) [formula] Table 3. […]

[2] = in vitro liver microsome metabolic stability, rat; settings: Rat liver microsomes, 37°C
Procedure: as §1, §2, §3, §4, §5, §6, §7, §8, §9, §10, §11

[3] = in vitro liver microsome metabolic stability, beagle dog; settings: Beagle dog liver microsomes, 37°C
Procedure: as §1, §2, §3, §4, §5, §6, §7, §8, §9, §10, §11

CN(CC(F)(F)F)C(=O)c1nccc(Nc2c(N[C@@H](c3ccc(F)cn3)C3(C)CCCC3)c(=O)c2=O)c1O [compound 070, (R)-4-((2-(((5-fluoropyridin-2-yl)(1-methylcyclopentyl)methyl)amino)-3,4-dioxocyclobut-1-en-1-yl)amino)-3-hydroxy-N-methyl-N-(2,2,2-trifluoroethyl)picolinamide]
Liver microsome T1-2 (min) Human [1]: 201.75 min | Liver microsome T1-2 (min) Rat [2]: 34.22 min | Liver microsome T1-2 (min) Beagle dog [3]: 37.22 min

CN(CC(F)F)C(=O)c1nccc(Nc2c(N[C@@H](c3ccc(F)cn3)C3(C)CCCC3)c(=O)c2=O)c1O [compound 071, (R)-N-(2,2-difluoroethyl)-4-((2-(((5-fluoropyridin-2-yl)(1-methylcyclopentyl)methyl)amino)-3,4-dioxocyclobut-1-en-1-yl)amino)-3-hydroxy-N-methylpicolinamide]
Liver microsome T1-2 (min) Human [1]: 262.47 min | Liver microsome T1-2 (min) Rat [2]: 52.81 min | Liver microsome T1-2 (min) Beagle dog [3]: 54.52 min

Cc1cccnc1C(Nc1c(Nc2ccc(Cl)c(C(=O)N(C)C)c2O)c(=O)c1=O)C1(C)CC(F)(F)CO1 (stereo not drawn) [compound 080, 6-chloro-3-((2-(((4,4-difluoro-2-methyltetrahydrofuran-2-yl)(3-methylpyridin-2-yl)methyl)amino)-3,4-dioxocyclobut-1-en-1-yl)amino)-2-hydroxy-N, N-dimethylbenzamide]
Liver microsome T1-2 (min) Human [1]: 539.06 min | Liver microsome T1-2 (min) Rat [2]: 109.92 min | Liver microsome T1-2 (min) Beagle dog [3]: 1205.26 min

Cc1cccnc1[C@H](Nc1c(Nc2ccc(Cl)c(C(=O)N(C)C)c2O)c(=O)c1=O)C1(C)CC(F)CO1 (stereo partly drawn) [compound 081, 6-chloro-3-((2-(((1S)-(4-fluoro-2-methyltetrahydrofuran-2-yl)(3-methylpyridin-2-yl)methyl)amino)-3,4-dioxocyclobut-l-en-1-yl)amino)-2-hydroxy-N,N-dimethylbenzamide]
Liver microsome T1-2 (min) Human [1]: 713.96 min | Liver microsome T1-2 (min) Rat [2]: 403.32 min | Liver microsome T1-2 (min) Beagle dog [3]: 669.81 min

Cc1cccnc1[C@H](Nc1c(Nc2ccnc(C(=O)N(C)C)c2O)c(=O)c1=O)C1(C)CCCO1 (stereo partly drawn) [compound 082, 3-hydroxy-N,N-dimethyl-4-((2-(((1S)-(3-methylpyridin-2-yl)(2-methyltetrahydrofuran-2-yl)methyl)amino)-3,4-dioxocyclobut-1-en-1-yl)amino)picolinamide]
Liver microsome T1-2 (min) Human [1]: 261.96 min | Liver microsome T1-2 (min) Rat [2]: 290.01 min | Liver microsome T1-2 (min) Beagle dog [3]: 275.16 min

Cc1cccnc1C(Nc1c(Nc2ccc(Cl)c(C(=O)N(C)C)c2O)c(=O)c1=O)C1(C)CCOC1 (stereo not drawn) [compound 083, 6-chloro-2-hydroxy-N,N-dimethyl-3-((2-(((3-methylpyridin-2-yl)(3-methyltetrahydrofuran-3-yl)methyl)amino)-3,4-dioxocyclobut-1-en-1-yl)amino)benzamide]
Liver microsome T1-2 (min) Human [1]: 412.77 min | Liver microsome T1-2 (min) Rat [2]: 290.38 min | Liver microsome T1-2 (min) Beagle dog [3]: 741.46 min

Cc1cccnc1[C@H](Nc1c(Nc2ccc(Cl)c(C(=O)N(C)C)c2O)c(=O)c1=O)C1(C)CC(F)(F)C1 [compound 088, (R)-6-chloro-3-((2-(((3,3-difluoro-1-methylcyclobutyl)(3-methylpyridin-2-yl)methyl)amino)-3,4-dioxocyclobut-l-en-1-yl)amino)-2-hydroxy-N,N-dimethylbenzamide]
Liver microsome T1-2 (min) Human [1]: 423.69 min | Liver microsome T1-2 (min) Rat [2]: 39.67 min | Liver microsome T1-2 (min) Beagle dog [3]: 753.15 min
